# Experimental data: PMC6458995, “MAP4K4 Inhibition Promotes Survival of Human Stem Cell-Derived Cardiomyocytes and Reduces Infarct Size In Vivo” (Cell Stem Cell, 2019)
# Columns and labels:
# [1] = system: cardiomyocyte apoptosis; assay: Cardiomyocyte apoptosis after myocardial infarction (TUNEL staining); format: in vivo, mice; conditions: post-injury study
# Experimental: Mice were treated subcutaneously with 0.024 mg buprenorphine (average, 1.1 mg kg^-1; […] Animal Health), intubated, and ventilated using a tidal volume of 250 μL and respiratory rate of 150 breaths min^-1 (Hugo-Sachs MiniVent type 845; Harvard Apparatus). After a left thoracotomy in the fourth intercostal space, the pericardium was removed. A 6-0 polypropylene suture was used to […] anterior descending coronary artery (LAD) and tied against a short section of PE-50 polyethylene tubing for 45 min; blood flow was re-established by removing the tubing, releasing the ligature. Ischemia and reperfusion were substantiated by reversible distal blanching and ST segment elevation. Mice were allowed to recover in a heated chamber for 20 min, then moved to a normal holding cage with supplemental heat if necessary. […] Nuclei were stained with 2.5 μg ml^-1 diamidinophenolindole (DAPI). Alternatively, fixed frozen sections were used. Cleaved DNA (apoptotic cells) was visualized using TUNEL ApopTag Kits (Millipore). Cardiomyocytes were identified using MF20 antibody to sarcomeric myosin heavy chains (MyHC; R&D Systems) (fluorescein-conjugated: Figure S3C; unconjugated, plus Alexa Fluor-555 anti-mouse IgG: Figure […]; conjugated and unconjugated mouse IgG2b were the respective controls). Sections were counterstained with DAPI and treated with Prolong Gold Antifade Mountant (Life Technologies). […]
# [2] = target: cardiac MAP4K4 (Mus musculus, UniProt P97820); assay: Target engagement in vivo (desthiobiotin-ATP probe on cardiac lysates after oral dosing); conditions: dose-response and time course
# cardiac MAP4K4, sequence (P97820 2-310 limits assumed): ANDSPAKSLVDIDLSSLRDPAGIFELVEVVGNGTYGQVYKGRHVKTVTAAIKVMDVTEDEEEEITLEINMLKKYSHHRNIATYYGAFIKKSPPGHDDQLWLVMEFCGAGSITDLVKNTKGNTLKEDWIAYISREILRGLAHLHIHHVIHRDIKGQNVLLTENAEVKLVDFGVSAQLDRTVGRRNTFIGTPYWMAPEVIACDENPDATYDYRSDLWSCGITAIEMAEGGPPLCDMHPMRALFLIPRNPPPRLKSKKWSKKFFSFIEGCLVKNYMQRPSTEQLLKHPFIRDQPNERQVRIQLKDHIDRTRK
# [3] = system: vCor.4U cells; assay: Mitochondrial function (Seahorse XFe24, OCR and ECAR); format: cell-based, human; conditions: menadione 15 μM, 2 h
# Experimental: Mitochondrial function in hiPSC-CMs was determined using a Seahorse XFe24 Analyzer. vCor.4U cells (60,000 well^-1) were transferred to 0.1% gelatin-coated XF24 plates and maintained for 5 d, as described above. On day 6, DMX-5804 was added 45 min prior to challenge with menadione for 2 h. The medium was replaced 1 hr before the assay, using bicarbonate-free Seahorse assay medium (8.3 g L^-1 DMEM Base (Sigma-Aldrich), 10 mM glucose, 2 mM L-alanyl-L-glutamine dipeptide (Glutamax-1, GIBCO), 1 mM sodium pyruvate (GIBCO), pH 7.4). Cells were maintained at 37°C without supplemental CO2 starting 1 hr before the assay (IL10 incubator, VWR). For each state measured, three assay cycles were performed (4 min mixing, 2 min wait, and 2 min measurement periods, with readings every 15 s). The basal oxygen consumption rate (OCR) and extracellular acidification rate (ECAR) were determined, followed by sequential injection of 1 μM oligomycin A (Abcam) to inhibit ATP synthase, 0.5 μM […] (FCCP; Abcam) to uncouple oxidative phosphorylation, and 1 μM antimycin A/rotenone (Sigma, Abcam) to inhibit mitochondrial complex III and I. For each condition, 12 wells were tested, comprising 4 independent experiments.
# [4] = system: NUAK; assay: HTRF Transcreener ADP kinase assay; format: biochemical, human
# [5] = system: S. typhimurium TA98 and TA100; assay: Ames genotoxicity reverse mutation assay
# Experimental: Approximately 10^7 bacteria were exposed in triplicate to the test agent (six concentrations, 7.8-250 μg ml^-1), a vehicle control (vehicle) and a positive control for 90 min in low-histidine medium (sufficient for about 2 doublings.) The strains used were S. typhimurium TA98 (hisD3052, rfa, uvrB / pKM101; detects frameshift mutations) and TA100: hisG45, rfa, uvrB / pKM101; detects base-pair substitutions). The cultures were then diluted into indicator medium lacking histidine, dispensed into 384-well plates, and incubated for 48 hr at 37°C. The test was performed in the absence and presence of S9 metabolic activation, to identify pro-mutagens as well as directly acting mutagens. Only cells that underwent reversion grow, resulting in a color change. A two-fold increase over the vehicle control in the number of colonies indicates a positive response.
# [6] = system: Cerep Safety 44 panel; assay: Cerep Safety 44 panel (SafetyScreen44); format: binding; conditions: except metallothionein 3
# [7] = system: rat ventricular myocytes; assay: Rat cardiac muscle cell death induced by H2O2 (sub-G1 DNA, flow cytometry); format: cell-based
# Experimental: Ventricular myocytes from 1 to 3 day-old Sprague-Dawley rats were enzymatically dissociated, purified by Percoll gradient centrifugation and pre-plating, and cultured as described ([Oh et al., 2003]). To detect hypodiploid DNA, flow cytometry was performed (XL or LSRII, BD Biosciences), using propidium iodide to measure DNA content and sampling > 5000 cells for each histogram. Myocyte identity was confirmed using FITC-conjugated MF-20 antibody to sarcomeric MyHC (R&D Systems). To detect dissipation of mitochondrial membrane potential (ΔΨm), cells were incubated for 60 min in 5 μg ml^-1 5, 5′, 6, 6’-tetrachloro-1, 1’, 3, 3′-tetraethylbenzimidazolyl carbocyanine iodide (DePsipher; R&D Systems). When ΔΨm is intact, mitochondrial uptake and aggregation of the dye result in red fluorescence; when ΔΨm is disturbed, the dye diffuses to the cytoplasm and reverts to its monomeric green form. Myocyte identity was confirmed using mouse antibody to sarcomeric tropomyosin (Sigma-Aldrich) conjugated with Texas Red-X (Molecular Probes).
# [8] = target: T1, endogenous MAP4K4 (Homo sapiens, UniProt O95819); assay: In-cell MAP4K4 activity, immune complex kinase assay in HEK293T cells; format: cell-based; conditions: HEK-293T, 1 h after treatment
# T1 construct: endogenous in cells; host or cells: HEK293T
# T1 sequence (O95819 whole entry): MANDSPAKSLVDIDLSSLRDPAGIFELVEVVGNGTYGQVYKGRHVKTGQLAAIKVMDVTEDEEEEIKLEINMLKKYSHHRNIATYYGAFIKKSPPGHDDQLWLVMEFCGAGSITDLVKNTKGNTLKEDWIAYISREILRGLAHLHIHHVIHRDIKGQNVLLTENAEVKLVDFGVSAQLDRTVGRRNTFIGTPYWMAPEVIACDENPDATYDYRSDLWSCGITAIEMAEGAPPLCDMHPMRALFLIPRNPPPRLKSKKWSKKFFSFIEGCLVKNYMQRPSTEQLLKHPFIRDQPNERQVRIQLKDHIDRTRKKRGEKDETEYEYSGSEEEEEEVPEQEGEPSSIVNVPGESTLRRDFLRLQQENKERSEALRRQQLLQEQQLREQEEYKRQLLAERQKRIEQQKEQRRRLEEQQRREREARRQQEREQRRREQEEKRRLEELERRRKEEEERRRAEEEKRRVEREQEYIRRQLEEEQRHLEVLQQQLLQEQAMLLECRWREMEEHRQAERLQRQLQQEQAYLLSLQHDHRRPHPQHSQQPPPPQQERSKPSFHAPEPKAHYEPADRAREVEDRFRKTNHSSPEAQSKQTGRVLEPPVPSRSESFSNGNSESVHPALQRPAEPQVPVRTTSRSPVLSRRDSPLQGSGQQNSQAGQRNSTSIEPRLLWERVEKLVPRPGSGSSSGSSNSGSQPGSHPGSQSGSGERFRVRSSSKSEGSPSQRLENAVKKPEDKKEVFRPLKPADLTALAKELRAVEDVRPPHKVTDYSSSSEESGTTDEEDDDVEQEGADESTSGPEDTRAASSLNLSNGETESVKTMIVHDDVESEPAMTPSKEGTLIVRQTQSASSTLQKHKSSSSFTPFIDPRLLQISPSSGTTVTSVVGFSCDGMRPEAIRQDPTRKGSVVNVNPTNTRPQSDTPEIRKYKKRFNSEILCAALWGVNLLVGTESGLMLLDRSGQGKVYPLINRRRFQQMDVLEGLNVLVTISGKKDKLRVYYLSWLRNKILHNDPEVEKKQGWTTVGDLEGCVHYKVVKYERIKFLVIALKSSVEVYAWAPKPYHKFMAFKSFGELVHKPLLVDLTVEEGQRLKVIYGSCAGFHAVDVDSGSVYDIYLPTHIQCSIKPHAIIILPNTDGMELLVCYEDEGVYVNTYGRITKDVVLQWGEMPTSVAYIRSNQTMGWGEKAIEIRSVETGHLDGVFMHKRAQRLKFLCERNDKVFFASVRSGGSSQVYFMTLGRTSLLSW
# Experimental: MAP4K4 was precipitated using M2 antibody to the FLAG epitope, or antibody to endogenous MAP4K4, and protein G-Sepharose. Precipitates were washed twice in lysis buffer, twice with 500 mM LiCl, 100 mM Tris-HCl, pH 7.6, 0.1% Triton X-100, twice with kinase buffer (20 mM MOPS, pH 7.6, 2 mM EGTA, 10 mM MgCl2, 1 mM dithiothreitol, 0.1% Triton X-100, 1 mM Na3VO4), and were then mixed with 10 μg of myelin basic protein (Invitrogen) as substrate, 15 μM ATP, and 10 μCi [γ-^32P]ATP in […] of kinase buffer for 30 min at 30°C ([Yao et al., 1999]). His-MKK6 was used as the substrate for TAK1 ([Zhang et al., 2000]). Reaction mixtures were resolved by SDS-polyacrylamide gel electrophoresis, then were analyzed by western blotting and autoradiography.
SMILES,suppression of cardiomyocyte apoptosis in adjacent jeopardized myocardium [1],suppression of cardiomyocyte apoptosis within the infarct [1],inhibition of ATP binding to cardiac MAP4K4 in vivo [2],extracellular acidification rate ([3]; 10 μM),improvement of residual maximum oxidative capacity ([3]; 10 μM),maximum oxidative capacity at lesser concentrations ([3]; below 10 μM),Fold Selectivity ([4]; NUAK versus MAP4K4),"DMX-5804 vs F1386-0303 ([4]; ratio of fold selectivity, NUAK)",Ames test of mutagenic potential [5],Cerep Safety 44 panel [6],"rat cardiomyocyte death ([7]; H2O2, even at 1 μM)","inhibition at 10 µM ([7]; Ventricular myocyte, rat ventricular myocytes, 10 μM)","adverse effect of compound ([7]; rat ventricular myocytes, any of the concentrations (1-10 μM))",inhibition at 10 µM [8]
"COCCOc1ccc(-c2cn(-c3ccccc3)c3nc[nH]c(=O)c23)cc1 [DMX-5804, 5-[4-(2-methoxy-ethoxy)-phenyl]-7-phenyl-3,7-dihydro-pyrrolo[2,3-d]pyrimidin-4-one]",52%,39%,substantiated,partially rescued,5 fold,No significant benefits,47,2.35,no off-target effect,no off-target effect,,,,
"Oc1ncnc2c1c(-c1ccccc1)cn2-c1ccccc1 [F1386-0303, 5,7-diphenyl-7H-pyrrolo[2,3-d]pyrimidin-4-ol]",,,,,,,,,,,inhibited,~50%,No adverse effect,70%
